Experimental data: patent US20220346650A1, “SYSTEMS AND METHODS FOR VASCULAR AND STRUCTURAL IMAGING” (priority 2019, published 2022)

What was measured:
[1] = test system: vascular lesion in the right middle frontal gyrus; settings: general comparison statement in Example 14, no own test described; cited from earlier work
[2] = test system: Grade 4 Atypical Teratoid Rhabdoid Tumor (ATRT) in the posterior fossa/brain stem; assay: Intraoperative NIR fluorescence imaging of tozuleristide during pediatric brain tumor resection; assay type: in vivo, human; settings: Subject T613, 15 mg/m2 IV bolus about 13.5 hours prior to surgery
Experimental: This example describes use of the imaging system and/or method disclosed herein for coaxial illumination and visualization of tozuleristide fluorescence during surgical resection of a pediatric brain tumor. The imaging system of the present invention was used to image brain tissue to detect a cancer using fluorescence imaging. Surgery was performed to remove cancer from the subject.
Subject T613 was diagnosed with a Grade 4 Atypical Teratoid Rhabdoid Tumor (ATRT) in the posterior fossa/brain stem. Tozuleristide which is a peptide-fluorophore detectable agent (15 mg/m2 dose), was given by intravenous (IV) bolus injection about 13.5 hours prior to the start of surgery. The imaging head was attached to the Zeiss Pentero surgical microscope along with two eyepieces prior the start of surgery.
After the tumor was exposed, the imaging system was initialized and used continuously. The imaging system enabled the surgeon to view fluorescence and visible imaging together and simultaneously with the operating microscope. […] Moreover, there was no need to reposition the operating microscope to view the fluorescence and visible images thus providing imaging of the surgical area together with the fluorescence imaging system during the operation, which decreased disruption to the surgical workflow.
Video was captured for the duration of the tumor resection, and still images were captured of the exposed tumor. […] FIGS. 15A-15F show images taken from the tumor resection with the near-infrared (NIR) fluorescence images of the tumor using the imaging system (FIGS. 15B and 15E) and the overlay image with the NIR fluorescence overlaid with the white light or visible light spectrum illumination (FIGS. 15C and 15F). […] In the overlay image, the normal brain tissue appeared red, as it does under normal visible light or white light as shown the visible light images of the tumor (FIGS. 15A and 15D). The surgeon noted that only tumor tissue appeared fluorescent.

[3] = test system: vascular lesion in the right middle frontal gyrus; assay: Intraoperative NIR fluorescence imaging of tozuleristide during resection of a vascular lesion (arteriovenous or cavernous malformation); assay type: in vivo, human; settings: for Fluorescence of surrounding tissue, normal brain tissue and normal vasculature / Fluorescence of the abnormal vascular tissue / vascular lesion: pediatric subject, 22 mg (15 mg/m^2) IV approximately 5-6 hours before surgery, NIR fluorescence; for Fluorescence of the abnormal vascular tissue / vascular lesion: in situ
Experimental: (§1) This example describes use of the imaging system and/or methods disclosed herein for coaxial illumination and visualization of tozuleristide fluorescence during surgical resection of an arteriovenous malformation or cavernous malformation in a pediatric patient. The imaging system of the present invention was used to image brain tissue to detect abnormal vasculature using fluorescence imaging. Surgery was performed to remove the abnormality from the subject.
A pediatric subject with a history of anosmia was found on MRI to have a 3.5 cm T1-hypointense, T2/FLAIR-hyperintense mass in the right middle frontal gyrus with a central enhancing nodule, initially diagnosed pre-operatively to be a low-grade glioma. […] The patient received 22 mg (15 mg/M^2) of tozuleristide via IV injection approximately 5-6 hours before surgery and image collection. The imaging system head was attached to the Zeiss Pentero surgical microscope along with two eyepieces prior the start of surgery.
After the lesion was exposed, the imaging system was initialized and used continuously. The imaging system enabled the surgeon to view fluorescence and visible imaging together and simultaneously with the operating microscope. A microsurgical resection was performed through a right frontal craniotomy. […] The abnormal tissue was completely resected. The patient recovered without deficit. Pathology confirmed the absence of tumor.
Video was captured for the duration of the resection, and still images were captured of the exposed lesion. […] FIGS. 18 and 19 show images taken from the vascular lesion with the near-infrared (NIR) fluorescence images of the vascular lesion using the imaging system. […] In the overlay image, the normal brain tissue and normal blood vessels appeared pink or light tan to red, as it does under normal visible light or white light. The surgeon noted that only the abnormal vascular tissue appeared fluorescent.

[4] = test system: cerebral cavernous malformation in the left cerebellar hemisphere; assay: Intraoperative NIR fluorescence imaging of tozuleristide during cavernous malformation resection; assay type: in vivo, human; settings: pediatric patient; 15 mg/m2 IV on the morning of surgery
Experimental: as §1, with “compounds and” for “imaging system and/or”, “a” for “an arteriovenous malformation or”, “An” for “The”, “system” for “system of the present invention”
The patient received 15 mg/m2 of a fluorescent conjugate comprising SEQ ID NO: 1 conjugated to an ICG (tozuleristide, also referred to herein as Compound 76) via IV injection on the morning of surgery and image collection. The imaging system head was attached to the Zeiss Pentero surgical microscope along with two eyepieces prior the start of surgery.
After the lesion was exposed, the imaging system was initialized and used continuously. The imaging system enabled the surgeon to view fluorescence and visible imaging together and simultaneously with the operating microscope. A microsurgical resection was performed through a left retroaricular craniotomy with frameless stereotactic navigation and intraoperative ultrasonography. A round mulberry appearing vascular lesion that contained areas of thrombosed vessels and firm calcifications was encountered. […] The lesion was removed. […]

| Compound | Behaviour of ICG alone after injection (comparison statement) [1] | Surgeon-noted distinction between tumor and normal tissue with NIR fluorescence [2] | Background fluorescence in non-tumor or normal brain tissue ([2]; NIR fluorescence image) | Tozuleristide fluorescence in the exposed tumor ([2]; NIR fluorescence, in situ) | Time after injection during which diseased tissue can be highlighted ([3]; general statement in Example 14, fluorescence dependent on pathological tissue binding and uptake) | Fluorescence of surrounding tissue, normal brain tissue and normal vasculature [3] | Fluorescence of the abnormal vascular tissue / vascular lesion [3] | Fluorescence of the abnormal vascular tissue / vascular lesion ([3]; listed as Tozuleristide) | Fluorescence of the abnormal vascular tissue / vascular lesion ([3]; listed as toluzeristide) | Fluorescence of surrounding tissue, normal brain tissue and normal vasculature ([3]; listed as Tozuleristide) | Fluorescence of surrounding tissue, normal brain tissue and normal vasculature ([3]; listed as toluzeristide) | Fluorescence of the cavernous malformation lesion [4] | Fluorescence of the surrounding cerebellum [4] |
| --- | --- | --- | --- | --- | --- | --- | --- | --- | --- | --- | --- | --- | --- |
| CC1(C)C(/C=C/C=C/C=C/C=C2\N(CCCCS(=O)(=O)O)c3ccc4ccccc4c3C2(C)C)=[N+](CCCCS(=O)(=O)[O-])c2ccc3ccccc3c21 [ICG, indocyanine green] | transiently lights up blood vessels immediately after injection | – | – | – | – | – | – | – | – | – | – | – | – |
| tozuleristide | – | very good distinction between tumor and normal tissue fluorescence | no discernable background fluorescence | observed in situ in the exposed tumor | up to 30 hours | non-fluorescent | indicative of the presence of tozuleristide in the vascular lesion | observed in situ in the exposed vascular lesion | fluoresced avidly | no discernable background fluorescence | no fluorescence | fluoresced avidly | did not fluoresce |
